What was measured:
Pseudomonus = test: Bacterial inactivation (colony forming units); type: cell-based; details: 16 μM, after 5 J/cm^2 irradiation, starting titer 6.5 logs, 15% FBS in DMEM
Protocol: In this example bacterial inactivation by the photoreactive nucleic acid binding compounds of the present invention was measured as a function of the ability of the bacteria to subsequently replicate. A gram negative bacteria was chosen as representative of the more difficult bacterial strains to inactivate.
The bacteria, a strain of Pseudomonus, was innoculated into LB with a sterile loop and grown overnight in a shaker at 37° C. Based on the approximation that one OD at 610 nm is equivalent to 5×10^8 colony forming units (cfu)/mL, a 1:10 dilution of the culture was measured on a spectrophotometer, (manufactured by Shimatsu). The bacterial culture was added to a solution of 15% fetal bovine serum in DMEM to a final bacteria concentration of approximately 10^6/mL. An aliquot (0.8 mL) was transferred to a 1.5 mL snap-top polyethylene tube. An aliquot (0.004-0.040 mL) of the test compound stock solution prepared in water, ethanol or dimethylsulfoxide at 0.80-8.0 mM was added to the tube. Compounds were tested at a concentration of 16 μM. The tubes were placed in a light device as described in EXAMPLE 1 and irradiated with 1.3 J/cm^2, 1.2 J/cm^2, and finally 2.5 J/cm^2, for a total of 5 J/cm^2. […] The colony forming units were then counted the following morning and the titer of the […] remaining after phototreatment was calculated based on the dilution factors. […]

[1] = tested on: GMP-140 (p-selectin) on platelets; test: Platelet function: GMP-140 expression (flow cytometry, CD62); type: cell-based, human; details: 100 μM compound, 5 Joules/cm^2, 5 days storage
Protocol: To measure the effects of the present compounds and methods of decontamination on platelet function using these four indicators, four samples were prepared for each compound tested, two control samples and two containing compound. Three units of human platelets were obtained from the Sacramento Blood Center, Sacramento, Calif. These were each transferred under sterile conditions to 50 ml centrifuge tubes, then aliquots of each unit were transferred into a second set of 50 ml sterile centrifuge tubes. To each centrifuge tube containing platelet concentrate (PC), an aliquot of compound stock was added to reach a final concentration of 100 μM of compound. […] The samples were pipetted gently up and down to mix. Then aliquots (either 3 ml or 8 ml) of each sample was transferred to two sterile Teflon™ Medi-bags™ (American Fluoroseal Co., Silver Springs, Md.) (presently owned by The West Company, Lionville, Pa.). Samples were treated in one of two different sized bags, having either 3 ml or 8 ml capacity. […] For each compound tested, two control samples without compound were prepared by again removing aliquots of platelet concentrate (17 ml if using an 8 ml bag, […] if using a 3 ml bag) from the same one of the first set of 50 ml centrifuge tubes from which the compound sample was drawn, and dividing into Medibags, as before. One of each pair of Medibags containing a compound, and one of each pair of control Medibags, were illuminated for 5 Joules/cm^2 on the device described in Example 1, above. Then all experimental and control Medibags were placed on a platelet shaker for storage for 5 days. The same experiments were repeated several times to obtain more statistically meaningful data, as represented by “n”, the number of data points represented, in the graphs of FIGS. 21-24, discussed below.

mouse reticulocytes = details: increased dose levels, male Balb/c mice, tail vein
Protocol: Male Balb/c mice were then injected with 0.1 ml of a compound solution via the tail vein. At least 3 mice were injected per dose level. Saline only was used as a negative control. For a positive control, cyclophosphamide (cycloPP) was administered at a dose of 30 mg/kg. In the experimental group, the injections were repeated once per day for four days. In the positive control group, the sample was administered only once, on day three. On day 5, several microliters of blood were withdrawn from each subject and smeared on a glass slide. Cells were fixed in absolute methanol and stored in a slide rack.
For analysis, cells were stained with acridine orange and visualized under a fluorescence microscope by counting: (i) the number of reticulocytes per 5000 erythrocytes; and (ii) the number of micronucleated reticulocytes per 1000 reticulocytes. Reticulocytes were distinguished by their red fluorescence due to the presence of RNA. Micronuclei were distinguished by their green fluorescence due to the presence of DNA. The percentage of reticulocytes (%PCE) was then calculated. A decrease in the frequency of […] in the percentage of reticulocytes, is an indication of bone marrow toxicity. The percentage of reticulocytes with micronuclei (%PCE with MN) was also calculated. An increase in %PCE with MN is a measure of clastogenicity.
After initial results were determined, the experiment was repeated using increased dose levels, until: (i) Micronucleus formation was seen; or (ii) Bone marrow toxicity was observed; or (ii) The lethal dose was reached; or (iv) A dose of 5 g/kg was administered.

Structure (SMILES)	log kill of bacteria (Pseudomonus) [logs]	GMP-140 expression: sample treated with light and psoralen (PCD) versus day 5 untreated control (D5) [1]	outcome of dose escalation in the micronucleus assay (mouse reticulocytes)
Cc1oc2c(C)c3oc(=O)cc(C)c3cc2c1COCCN [Compound 2, 4′-(4-amino-2-oxa)butyl-4,5′,8-trimethylpsoralen]	> 5.5	little or no difference	the acutely lethal dose was reached before there were any signs of bone marrow toxicity or micronucleus formation
Cc1oc2c(C)c3oc(=O)cc(C)c3cc2c1CNCCCCN [Compound 6, 4′-(6-amino-2-aza)hexyl-4,5′,8-trimethylpsoralen]	> 5.5	little or no difference	the acutely lethal dose was reached before there were any signs of bone marrow toxicity or micronucleus formation

Reference: US6469052B2, “Compounds for the photodecontamination of pathogens in blood” (Cerus Corporation, priority 1993, dated 2002)
